Marks after values point to notes of the source that are not given here.
Legend:
α1-adrenergic receptors = assay: α1-adrenoceptor radioligand binding assay ([3H]-prazosin, rat cortex); conditions: rat cortex tissue, mean ± SEM
Protocol: The α1- and α2-adrenoceptor radioligand binding assays were performed on the rat cerebral cortex using previously described methods. […] The brains were homogenized using the ULTRA-TURRAX homogenizer in 10 mL of an ice-cold 50 mM Tris-HCl buffer (pH 7.6). The homogenates were centrifuged at 20,000× g for 20 min (0–4 °C). Subsequently, the cell pellet was resuspended in the Tris–HCl buffer and centrifuged again. Radioligand binding assays were carried out in plates (MultiScreen/Millipore). The final incubation mixture, with a volume of 300 μL, consisted of 240 μL of the tissue suspension, 30 μL of the radioligand solution, and 30 μL of the buffer containing 7–8 concentrations of the studied compounds. In order to measure the unspecific binding, 10 μM phentolamine (for [^3H]-prazosin) or 10 μM clonidine (for [^3H]-clonidine) were utilized. The incubation was completed by rapid filtration through Whatman GF/C filters using a vacuum manifold (Millipore). The filters were then washed twice with the assay buffer and placed in scintillation vials with a liquid scintillation cocktail. Radioactivity was measured in a WALLAC 1409 DSA liquid scintillation counter (Perkin Elmer, USA). All the assays were performed in duplicates, and the inhibitory constants (Ki) were calculated.

[1] = system: adrenaline-induced arrhythmia model in rats; assay: Prophylactic antiarrhythmic activity in adrenaline-induced arrhythmia; assay type: in vivo, rat; conditions: for Blocks / Bradycardia / Extrasystoles / Mortality: number of animals with event
Protocol: (§1) The animals were anesthetized with thiopental (75 mg/kg ip). Depending on the model, either adrenaline, aconitine, or calcium chloride was used as an arrhythmogen. Adrenaline and aconitine were administered iv at a dose of 20 µg/kg, whereas calcium chloride was administered at a dose of 140 mg/kg to induce heart rhythm disturbances. The tested compounds were injected iv 15 min before the arrhythmogen. Aspel ASCARD apparatus (standard II lead, with the tape speed 50 mm/s and voltage calibration 1 mV = 1 cm) was used for ECG measurements. […] The ED50 was calculated using the method of Litchfield and Wilcoxon.

[2] = system: calcium chloride-induced arrhythmia model in rats; assay: Prophylactic antiarrhythmic activity in calcium chloride-induced arrhythmia; assay type: in vivo, rat; conditions: 5 mg/kg iv 15 min before calcium chloride 140 mg/kg; number of animals with event
Protocol: as §1

normal ECG in rats = assay: Effect on a normal electrocardiogram in rats; assay type: in vivo, rat; conditions: for HR—heart rate / PQ interval / QRS complex / QTc (Bazzett's formula) / decrease of the heart rate: 5 mg/kg iv; for HR—heart rate / PQ interval / QRS complex / QTc (Bazzett's formula): mean ± SD; for PQ interval / QRS complex / QTc (Bazzett's formula): in ms (unit assumed)
Protocol: The procedure was performed to exclude the negative effects of the tested compounds on the normal ECG, according to the method described earlier. […] Firstly, animals were anesthetized with thiopental (75 mg/kg ip). […] The influence on PQ, QTc interval, QRS complex, and heart rate was evaluated. The Bazzett’s formula: QTc = QT/√RR was used to calculate QTc. All the studied compounds were administered at a dose of 5 mg/kg.

normotensive rats = assay: Influence on blood pressure in the normotensive rats; assay type: in vivo, rat; conditions: for DBP—diastolic blood pressure / SBP—systolic blood pressure: mean ± SD
Protocol: The experiment was performed according to the method described earlier. Normotensive Wistar rats were anesthetized with thiopental (75 mg/kg ip). The right carotid artery was cannulated with a polyethylene tube filled with heparin solution, using a Datamax apparatus (Columbus Instruments, Columbus, OH, USA). After 15 min of the stabilization period, the studied compounds were administered iv, and their effect on systolic and diastolic blood pressure was evaluated (Figure 4A).

[3] = system: pressor response to methoxamine in rats; assay: Influence on blood vasopressor response to methoxamine in rats; assay type: in vivo, rat; conditions: 2.5 mg/kg iv, methoxamine 150 μg/kg before and 5 min after compound
Protocol: The experiment was performed to establish the effect of the studied derivatives on the pressor response to methoxamine (150 µg/kg, iv), according to the methods described previously. Normotensive Wistar rats were anesthetized with thiopental (75 mg/kg ip). The right carotid artery was cannulated with a polyethylene tube filled with heparin solution using a Datamax apparatus (Columbus Instruments, Columbus, OH, USA). After a 15-min stabilization period, the pressor response to methoxamine before (control) and 5 min after the administration of the tested compounds was measured (Figure 4B). The tested compounds were administered at the lowest hypotensive dose.

[4] = system: adrenaline-induced arrhythmia model in rats; assay: Therapeutic antiarrhythmic activity in adrenaline-induced arrhythmia; conditions: 1 mg/kg iv immediately after adrenaline 20 µg/kg; number of animals with event
Protocol: The experiments were carried out according to the method described by Szekeres and Papp [71]. The heart rhythm disturbances, such as extrasystoles, conduction blocks, and bradycardia, were induced by iv injection of adrenaline (20 µg/kg) to anesthetized rats (thiopental, 75 mg/kg, ip). […] The Aspel ASCARD apparatus (standard II lead, with a tape of speed 50 mm/s and voltage calibration of 1 mV = 1 cm) was used for the ECG measurements. The ECG was recorded during the first 2 min and in the 5th, 10th, and 15th min after the adrenaline injection (Figure 3B). The lack or decreased amount of extrasystoles, atrioventricular blocks, and bradycardia in the ECG recordings compared to the control group was the criterion of antiarrhythmic activity [72].
Automated ECG waveform analysis was evaluated as described earlier [55], using Eleven Maze software version 0.1 from Eleven Products Sp. z o.o. […] The software, under expert supervision, recognized and classified the heart rhythm irregularities. It also calculated PQ, QRS, QTc, and rate parameters.

[5] = 0.1 mg/kg iv 15 min before adrenaline 20 μg/kg
[6] = 0.25 mg/kg iv 15 min before adrenaline 20 μg/kg
[7] = 0.5 mg/kg iv 15 min before adrenaline 20 μg/kg
[8] = 0 min (prior to administration)
[9] = 1.0 mg/kg iv, 0 min (before administration)
[10] = 2.5 mg/kg iv, 0 min (before administration)

COc1ccccc1N1CCN(Cc2cccc(COc3ccccc3C(N)=O)c2)CC1.Cl [JJGW11, 2-[(3-{[4-(2-metoxyphenyl)piperazin-1-ylo]methyl}phenyl)metoxy}benzamide hydrochloride]
Adrenergic Receptors—pKi α1 (α1-adrenergic receptors): 8.07 ± 0.04 | Blocks [1, 5]: 4/5 | Bradycardia [1, 5]: 2/5 | Extrasystoles [1, 5]: 4/5 | Mortality [1, 5]: 1/5 | Blocks [1, 6]: 6/6 | Bradycardia [1, 6]: 0/6 | Extrasystoles [1, 6]: 6/6 | Mortality [1, 6]: 0/6 | Blocks [1, 7]: 1/6 | Bradycardia [1, 7]: 2/6 | Extrasystoles [1, 7]: 3/6 | Mortality [1, 7]: 1/6 | ED50 ([1]; prophylactic, iv 15 min before adrenaline 20 μg/kg, confidence limits in brackets (Litchfield and Wilcoxon)): 0.19 (0.08–0.45) mg/kg | Blocks [2]: 6/6 | Bradycardia [2]: 6/6 | Extrasystoles [2]: 5/6 | Fibrillations [2]: 6/6 | Mortality [2]: 6/6 | dose affecting the heart rate relative to the ED50 value in the adrenaline-induced arrhythmia model (normal ECG in rats; 5 mg/kg iv vs ED50): 26 fold | HR—heart rate (normal ECG in rats; [8]): 281.3 ± 50.8 | PQ interval (normal ECG in rats; [8]): 45.8 ± 7.2 | QRS complex (normal ECG in rats; [8]): 38.5 ± 3.6 | QTc (Bazzett's formula) (normal ECG in rats; [8]): 188.2 ± 12.3 | decrease of the heart rate (normal ECG in rats; 10th min after the injection): 8% | decrease of the heart rate (normal ECG in rats; 15th min after the injection): 10% | HR—heart rate (normal ECG in rats; 5 min): 266.5 ± 58.2 | PQ interval (normal ECG in rats; 5 min): 47.1 ± 5.7 | QRS complex (normal ECG in rats; 5 min): 41.3 ± 3.0 | QTc (Bazzett's formula) (normal ECG in rats; 5 min): 197.3 ± 18.6 | HR—heart rate (normal ECG in rats; 10 min): 258.8 ± 55.0 | PQ interval (normal ECG in rats; 10 min): 47.4 ± 5.0 | QRS complex (normal ECG in rats; 10 min): 42.4 ± 4.3 | QTc (Bazzett's formula) (normal ECG in rats; 10 min): 193.6 ± 22.0 | HR—heart rate (normal ECG in rats; 15 min): 252.4 ± 50.3 | PQ interval (normal ECG in rats; 15 min): 47.6 ± 5.1 | QRS complex (normal ECG in rats; 15 min): 41.7 ± 5.4 | QTc (Bazzett's formula) (normal ECG in rats; 15 min): 184.1 ± 16.9 | DBP—diastolic blood pressure (normotensive rats; [9]): 86.8 ± 7.6 mmHg | SBP—systolic blood pressure (normotensive rats; [9]): 118.2 ± 9.7 mmHg | DBP—diastolic blood pressure (normotensive rats; 1.0 mg/kg iv, 5 min): 81.3 ± 14.4 mmHg | SBP—systolic blood pressure (normotensive rats; 1.0 mg/kg iv, 5 min): 116.2 ± 8.5 mmHg | DBP—diastolic blood pressure (normotensive rats; 1.0 mg/kg iv, 10 min): 82.0 ± 10.2 mmHg | SBP—systolic blood pressure (normotensive rats; 1.0 mg/kg iv, 10 min): 113.8 ± 9.2 mmHg | DBP—diastolic blood pressure (normotensive rats; 1.0 mg/kg iv, 20 min): 82.3 ± 8.8 mmHg | SBP—systolic blood pressure (normotensive rats; 1.0 mg/kg iv, 20 min): 111.5 ± 10.4 mmHg | DBP—diastolic blood pressure (normotensive rats; 1.0 mg/kg iv, 30 min): 83.0 ± 8.2 mmHg | SBP—systolic blood pressure (normotensive rats; 1.0 mg/kg iv, 30 min): 111.0 ± 10.8 mmHg | DBP—diastolic blood pressure (normotensive rats; 1.0 mg/kg iv, 40 min): 82.5 ± 8.4 mmHg | SBP—systolic blood pressure (normotensive rats; 1.0 mg/kg iv, 40 min): 110.0 ± 11.5 mmHg | DBP—diastolic blood pressure (normotensive rats; 1.0 mg/kg iv, 50 min): 81.7 ± 8.3 mmHg | SBP—systolic blood pressure (normotensive rats; 1.0 mg/kg iv, 50 min): 110.3 ± 10.7 mmHg | DBP—diastolic blood pressure (normotensive rats; 1.0 mg/kg iv, 60 min): 81.5 ± 8.4 mmHg | SBP—systolic blood pressure (normotensive rats; 1.0 mg/kg iv, 60 min): 110.8 ± 10.6 mmHg | DBP—diastolic blood pressure (normotensive rats; [10]): 88.7 ± 10.4 mmHg | SBP—systolic blood pressure (normotensive rats; [10]): 116.7 ± 8.1 mmHg | decrease of the diastolic blood pressure (normotensive rats; 2.5 mg/kg iv, 60th min after administration): 18% | DBP—diastolic blood pressure (normotensive rats; 2.5 mg/kg iv, 5 min): 84.7 ± 10.0 mmHg | SBP—systolic blood pressure (normotensive rats; 2.5 mg/kg iv, 5 min): 108.5 ± 8.7 ^b mmHg | DBP—diastolic blood pressure (normotensive rats; 2.5 mg/kg iv, 10 min): 81.2 ± 8.6 mmHg | SBP—systolic blood pressure (normotensive rats; 2.5 mg/kg iv, 10 min): 103.3 ± 9.5^c mmHg | DBP—diastolic blood pressure (normotensive rats; 2.5 mg/kg iv, 20 min): 78.5 ± 10.1 mmHg | SBP—systolic blood pressure (normotensive rats; 2.5 mg/kg iv, 20 min): 102.3 ± 10.0 ^c mmHg | DBP—diastolic blood pressure (normotensive rats; 2.5 mg/kg iv, 30 min): 77.3 ± 9.9 mmHg | SBP—systolic blood pressure (normotensive rats; 2.5 mg/kg iv, 30 min): 101.3 ± 9.2 ^b mmHg | DBP—diastolic blood pressure (normotensive rats; 2.5 mg/kg iv, 40 min): 79.2 ± 10.5 mmHg | SBP—systolic blood pressure (normotensive rats; 2.5 mg/kg iv, 40 min): 103.0 ± 10.3 ^a mmHg | DBP—diastolic blood pressure (normotensive rats; 2.5 mg/kg iv, 50 min): 77.7 ± 12.9 mmHg | SBP—systolic blood pressure (normotensive rats; 2.5 mg/kg iv, 50 min): 103.5 ± 12.9 ^b mmHg | DBP—diastolic blood pressure (normotensive rats; 2.5 mg/kg iv, 60 min): 73.0 ± 16.2 ^a mmHg | SBP—systolic blood pressure (normotensive rats; 2.5 mg/kg iv, 60 min): 100.2 ± 15.9 ^b mmHg | decrease of the systolic blood pressure (normotensive rats; 2.5 mg/kg iv, between the 5th and 60th min after injection): 7–14% | attenuation of the methoxamine pressor response [3]: 99% | Blocks [4]: 2/5 | Bradycardia [4]: 1/5 | Mortality [4]: 0/5

From paper PMC9820316, “Novel Arylpiperazine Derivatives of Salicylamide with α1-Adrenolytic Properties Showed Antiarrhythmic and Hypotensive Properties in Rats” (International Journal of Molecular Sciences, 2022)
